This is an account of results in patent publication US20250281388A1, “COMPOSITIONS COMPRISING BREVIBACILLA MULTIFUNCTIONAL FERMENTATES AND METHODS OF USE” (Nutrition & Biosciences USA 4, Inc., priority 2022, published 2025).

“Also recorded” adds a separate entry of the source.

The nature of data set [1]: Foam enhancing test (foam height in 50-ml conical tube). The data set is classed as physicochemical. Details: key: tube marking minus 10 (mL scale); 0 = no foam, 40 = maximum. How it is done: Foam enhancing capabilities of the Brevibacillus laterosporus A8.11 fermentate supernatant (cell free supernatant) were evaluated in the presence of different categories of surfactants and detergents commonly found in home and personal care cleaning formulations. To evaluate this, a solution of 1% zwitterionic detergent (CHAPS hydrate), 1% solution of the glycolipid biosurfactant type 1 (acidic sophorolipids non-acetylated), a 0.1% solution of glycolipid biosurfactant type 2 (lactonic (di-acetylated) sophorolipids), and 0.1% of the anionic/non-ionic detergent were each prepared with 10% cell free supernatant in a 50-ml conical tube with deionized water for a final volume of 10-mL. Control samples were prepared individually as 1% zwitterionic detergent, 1% solution of the glycolipid biosurfactant type 1, a 0.1% solution of glycolipid biosurfactant type 2, 0.1% of the anionic/non-ionic detergent and 10% cell free supernatant only in a 50-ml conical tube with deionized water for a final volume of 10-mL. All samples were shaken for 30 seconds by hand and left at room temperature to observe foam height. Foam height was measured by the marking on a 50-ml conical tube and subtracted by 10, where a value of 40 is the maximum foam height and a value of 0 indicates no foam.

Data set [2] relates to Pseudomonas aeruginosa (ATCC #15442). As to the kind of experiment: Polylysine control of Pseudomonas aeruginosa with or without Acumer 4200 (visual turbidity). It counts as cell-based. The note with it: 37 C overnight. How it is done: The ability of Polylysine, a known cationic peptide-based food preservative, to suppress the growth of Pseudomonas aeruginosa in the presence and absence of the anionic polymer Acumer 4200 was also evaluated. The test was conducted in scintillation vials inoculated with a 1:100 dilution from an overnight of Pseudomonas aeruginosa (ATCC #15442) allowed to incubate at 37 C overnight. The readout was visual with turbidity as an indicator of Pseudomonas growth.

Data set [3] in a line: Foam stabilizing test (foam height in 50-ml conical tube). It counts as physicochemical. Details: unit not given beside the values. How it is done:
Foam stabilizing capabilities of the Brevibacillus laterosporus A8.11 fermentate supernatant (cell free supernatant) were evaluated in the presence of different categories of surfactants and detergents commonly found in home and personal care cleaning formulations. To evaluate this, a solution of a 1% non-ionic detergent (Tergitol 15-S-7) and a 1% solution of anionic surfactant (Sodium lauroyl sarcosinate) were each prepared with 10% cell free supernatant in a 50-ml conical tube with deionized water for a final volume of 10-mL. Control samples were prepared individually as 1% non-ionic detergent only, 1% anionic surfactant only and 10% cell free supernatant only in 50-ml conical tubes with deionized water for a final volume of 10-mL. All samples were shaken for 30 seconds by hand and left at room temperature to observe foam height. Foam height was measured by the marking on a 50-ml conical tube and subtracted by 10, where a value of 40 is the maximum foam height and a value of 0 indicates no foam. Foam stabilization was defined as the ability to maintain the starting foam height over multiple timepoints.

The nature of data set [4]: Activated ABTS antioxidant assay (absorbance at 405 nm, Trolox calibration). The data set is classed as biochemical. As for the experimental part: The Brevibacillus laterosporus fermentate was prepared as described in Example 2, using TSB media (1.7% Tryptone, 0.3% Soytone, 0.25% Glucose, 0.5% sodium chloride, 0.25% Potassium phosphate Dibasic) as the growing solution. The fermentate supernatant was first let flow through an Amicon® Ultra Centrifugal Filters with a size cutoff of 30 kDa. The permeate (which was essentially free of cells) was kept and then let flow through another Amicon® Ultra Centrifugal Filters with a size cutoff of 3 kDa. The retentate was concentrated by 10-fold in volume and stored as the final product (i.e., size is greater than 3 kDa and less than 30 kDa), referring as the concentrated fermentate in the subsequent experiments. The 10-fold concentrated fermentate was dosed separately at 2 weight percent into the serum (Table 2) and hydrogel (Table 3) formulations with xanthan gum.
The water-soluble analogue of α-Tocopherol, Trolox, is often used as a reference for characterization the antioxidant properties of a new ingredient in the assay (Reference: “Huang, S. W., Hopia, A., Schwarz, K., Frankel, E. N., & German, J. B. (1996). Antioxidant activity of α-tocopherol and trolox in different lipid substrates: bulk oils vs oil-in-water emulsions. Journal of Agricultural and Food Chemistry, 44 (2), 444-452.”).
A series of Trolox with different concentrations were used as the calibration curve for quantifying the antioxidant properties.
Table 5 summarizes the measured absorbance and the corresponding trolox equivalent (calculated from the Trolox calibration curve) of the fermentate and fermentate-dosed formulations.

Where [5] appears, read: Time 0, 10-mL in deionized water, shaken 30 seconds, 40 = maximum.

With “lactonic (di-acetylated) sophorolipids [Glycolipid Biosurfactant Type-2]”, the “Foam Height” value in data set [1] (setting [5]) was determined as 2.5; in data set [1] (Time 1 min), 2.5; in data set [1] (Time 5 min), 2; in data set [1] (Time 15 min), 1; in data set [1] (Time 30 min), 1; in data set [1] (Time 3 hours), 0. The “Foam Height” value in data set [1] (Time 24 hours) was determined as 0.
Regarding `C[C@H](CCC(=O)NCCC[N+](C)(C)CCCS(=O)(=O)[O-])[C@H]1CC[C@H]2[C@@H]3[C@H](O)C[C@@H]4C[C@H](O)CC[C@]4(C)[C@H]3C[C@H](O)[C@]12C.O` [Zwitterionic Detergent, CHAPS hydrate], the “Foam Height” value in data set [1] (setting [5]) is recorded as 15; in data set [1] (Time 1 min), 2.5; in data set [1] (Time 5 min) it was 0; in data set [1] (Time 15 min) it was 0; in data set [1] (Time 30 min), 0; in data set [1] (Time 3 hours) it was 0. Further, the “Foam Height” value in data set [1] (Time 24 hours) is recorded as 0.
On to Polylysine, for which the “Visual Inspection” value is “does not function as an antimicrobial; also recorded: Turbid” in data set [2] (TSB growth medium with Acumer 4200 and polylysine); “able to suppress microbial growth; also recorded: Clear (polylysine prevented growth)” in data set [2] (TSB growth medium with the substance alone).
For the molecule Tergitol 15-S-7 [Non-ionic Detergent], the “Foam Height” value is given as 37.5 in data set [3] (setting [5]); 37.5 in data set [3] (Time 1 min); 36 in data set [3] (Time 5 min); 22.5 in data set [3] (Time 15 min); 20 in data set [3] (Time 30 min); 14 in data set [3] (Time 3 hours). Further, the “Foam Height” value in data set [3] (Time 24 hours) was determined as 2.
For “acidic sophorolipids non-acetylated [Glycolipid Biosurfactant Type-1]”, the “Foam Height” value in data set [1] (setting [5]) is given as 2.5; in data set [1] (Time 1 min), 1; in data set [1] (Time 5 min), 1; in data set [1] (Time 15 min), 1; in data set [1] (Time 30 min) it was 1; in data set [1] (Time 3 hours), 0. Also, the “Foam Height” value in data set [1] (Time 24 hours) is on record as 0.
Regarding `Cc1c(C)c2c(c(C)c1O)CCC(C)(C(=O)O)O2` (stereo not drawn) [Trolox], the Measured absorbance in data set [4] (Trolox 4.7 μM) was 1.16; in data set [4] (Trolox 9.4 μM), 1.13; in data set [4] (Trolox 18.75 μM), 1.09; in data set [4] (Trolox 37.5 μM), 0.97; in data set [4] (Trolox 75 μM) it was 0.77; in data set [4] (Trolox 150 μM) it was 0.38.
